{"source": "patent US20210198277A1", "about": "“AMINE-SUBSTITUTED ARYL OR HETEROARYL COMPOUNDS” (Epizyme, Inc., priority 2016, published 2021)", "note": "Counter-ions that a name gives are not always drawn.", "data": [{"molecular_target": "T1, EHMT2 (Homo sapiens, UniProt Q96KQ7)", "T1 construct": "host or cells: MDA-MB-231", "T1 sequence (Q96KQ7 1-1210)": "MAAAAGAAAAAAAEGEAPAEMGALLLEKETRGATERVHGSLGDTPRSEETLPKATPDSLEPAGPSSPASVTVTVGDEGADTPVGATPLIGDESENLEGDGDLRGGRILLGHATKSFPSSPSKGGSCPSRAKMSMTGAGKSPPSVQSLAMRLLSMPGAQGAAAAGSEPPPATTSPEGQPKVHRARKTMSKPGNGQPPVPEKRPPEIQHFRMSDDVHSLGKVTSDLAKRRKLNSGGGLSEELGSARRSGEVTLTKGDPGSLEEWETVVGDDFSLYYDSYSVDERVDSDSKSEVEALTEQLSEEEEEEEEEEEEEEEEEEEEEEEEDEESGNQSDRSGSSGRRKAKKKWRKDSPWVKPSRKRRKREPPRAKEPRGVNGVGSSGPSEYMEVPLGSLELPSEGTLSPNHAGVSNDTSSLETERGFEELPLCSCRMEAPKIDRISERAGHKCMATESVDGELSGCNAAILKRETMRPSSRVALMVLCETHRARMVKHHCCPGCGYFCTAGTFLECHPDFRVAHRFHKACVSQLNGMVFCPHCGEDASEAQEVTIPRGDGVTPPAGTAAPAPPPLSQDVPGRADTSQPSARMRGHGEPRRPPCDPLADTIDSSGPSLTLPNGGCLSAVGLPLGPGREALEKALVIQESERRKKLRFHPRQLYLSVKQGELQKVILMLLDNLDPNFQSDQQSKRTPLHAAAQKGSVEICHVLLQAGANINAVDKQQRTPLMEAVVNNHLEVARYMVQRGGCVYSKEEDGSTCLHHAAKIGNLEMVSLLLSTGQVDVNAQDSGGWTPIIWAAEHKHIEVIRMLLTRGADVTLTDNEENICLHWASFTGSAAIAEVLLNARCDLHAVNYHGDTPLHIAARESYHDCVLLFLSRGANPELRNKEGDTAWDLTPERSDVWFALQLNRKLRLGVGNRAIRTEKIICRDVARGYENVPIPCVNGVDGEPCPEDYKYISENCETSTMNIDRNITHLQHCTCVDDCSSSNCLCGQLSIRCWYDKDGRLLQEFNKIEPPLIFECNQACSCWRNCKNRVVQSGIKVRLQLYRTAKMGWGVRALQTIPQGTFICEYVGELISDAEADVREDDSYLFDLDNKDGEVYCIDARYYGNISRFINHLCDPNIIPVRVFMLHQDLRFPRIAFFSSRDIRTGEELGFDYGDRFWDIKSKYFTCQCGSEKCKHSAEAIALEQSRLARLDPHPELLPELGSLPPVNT", "experiment": "MDA-MB-231 H3K9me2 in-cell Western assay (EHMT2 ICW)", "type": "cell-based", "details": "Table II; MDA-MB-231 H3K9me2 in-cell Western; read-out: EHMT2 ICW (IC50 μM)", "text": "RPMI/Glutamax medium, Penicillin-Streptomycin, Heat Inactivated Fetal Bovine Serum, and D-PBS were purchased from Life Technologies (Grand Island, N.Y., USA). Odyssey blocking buffer, 800CW goat anti-mouse IgG (H+L) antibody, and Licor Odyssey Infrared Scanner were purchased from Licor Biosciences, Lincoln, Nebr., USA. […] 16% Paraformaldehyde was purchased from Electron Microscopy Sciences, Hatfield, Pa., USA).MDA-MB-231 cells were maintained in complete growth medium (RPMI supplemented with 10% v/v heat inactivated fetal bovine serum) and cultured at 37° C. under 5% CO2. UNC0638 was purchased from Sigma-Aldrich (St. Louis, Mo., USA).\nCompound (100 nL) was added directly to 384-well cell plate. MDA-MB-231 cells (ATCC) were seeded in assay medium (RPMI/Glutamax supplemented with 10% v/v heat inactivated fetal bovine serum and 1% Penicillin/Streptomycin, Life Technologies) at a concentration of 3,000 cells per well to a Poly-D-Lysine coated 384-well cell culture plate with 50 μL per well. […] Plates were incubated at room temperature for 30 minutes and then incubated at 37° C., 5% CO2 for additional 48 hours. After the incubation, 50 μL per well of 8% paraformaldehyde (Electron Microscopy Sciences) in PBS was added to the plates and incubated at room temperature for 20 minutes. […] Next, 60 μL per well of Odyssey blocking buffer (Licor Biosciences) was added to each plate and incubated for 1 hour at room temperature. Blocking buffer was removed and 20 μL of monoclonal primary antibody α-H3K9me2 (Abcam) diluted 1:800 in Odyssey buffer with 0.1% Tween 20 (v/v) were added and plates were incubated overnight (16 hours) at 4° C. Plates were washed 5 times with 100 μL per well of wash buffer. Next 20 μL per well of secondary antibody was added (1:500 800CW donkey anti-mouse IgG (H+L) antibody (Licor Biosciences), 1:1000 DRAQ5 (Cell Signaling Technology) in Odyssey buffer with 0.1% Tween 20 (v/v)) and incubated for 1 hour at room temperature. The plates were washed 5 times with 100 μL per well wash buffer then 2 times with 100 μL per well of water. Plates were allowed to dry at room temperature then imaged on a Licor Odyssey Infrared Scanner (Licor Biosciences) which measured integrated intensity at 700 nm and 800 nm wavelengths. Both 700 and 800 channels were scanned.\nFirst, the ratio for each well was determined by:\nThe average of the ratio values for each well was calculated and used to determine the percent inhibition for each test well in the plate. Control compound was serially diluted three-fold in DMSO for a total of 10 test concentrations beginning at 1 μM. Percent inhibition was calculated as: […]\nIC50 curves were generated using triplicate wells per concentration of compound. […] IC50 values were calculated using a non-linear regression (variable slope-four parameter fit model) with by the following formula: […]", "units": {"IC50": "µM"}, "values": [{"compound": "COc1ccc(Nc2nccc(NC(C)(C)C)n2)cc1OCCCN1CCCC1", "note": "[Compound 6, N^4-(tert-butyl)-N^2-(4-methoxy-3-(3-(pyrrolidin-1-yl)propoxy)phenyl)pyrimidine-2,4-diamine]", "IC50": "1 to 10"}, {"compound": "COc1ccc(Nc2ccnc(NCC3CCNCC3)n2)cc1OCCCN1CCCC1", "note": "[Compound 7, 4-N-[4-methoxy-3-[3-(pyrrolidin-1-yl)propoxy]phenyl]-2-N-(piperidin-4-ylmethyl)pyrimidine-2,4-diamine hydrochloride]", "IC50": "1 to 10"}, {"compound": "CC(=O)N1CCC(CNc2ccnc(Nc3ccc(Cl)c(OCCCN4CCCC4)c3)n2)CC1", "note": "[Compound 8, 1-(4-(((2-((4-chloro-3-(3-(pyrrolidin-1-yl)propoxy)phenyl)amino)pyrimidin-4-yl)amino)methyl)piperidin-1-yl)ethan-1-one]", "IC50": "1 to 10"}, {"compound": "CNC(=O)c1cnc(Nc2ccc(OC)c(OCCCN3CCCC3)c2)nc1", "note": "[Compound 9, 2-((4-methoxy-3-(3-(pyrrolidin-1-yl)propoxy)phenyl)amino)-N-methylpyrimidine-5-carboxamide]", "IC50": "> 10"}, {"compound": "COc1ccc(Nc2cc(NCC3CCNCC3)ccn2)cc1OCCCN1CCCC1", "note": "[Compound 10, N^2-(4-methoxy-3-(3-(pyrrolidin-1-yl)propoxy)phenyl)-N^4-(piperidin-4-ylmethyl)pyridine-2,4-diamine]", "IC50": "> 10"}, {"compound": "COc1cnc(Nc2ccnc(CNC3CCOCC3)c2)cc1OCCCN1CCCC1", "note": "[Compound 12, 5-methoxy-4-(3-(pyrrolidin-1-yl)propoxy)-N-(2-(((tetrahydro-2H-pyran-4-yl)amino)methyl)pyridin-4-yl)pyridin-2-amine]", "IC50": "> 10"}, {"compound": "COc1ccc(Nc2ccnc(N(C)CC3CCN(C(C)=O)CC3)c2)cc1OCCCN1CCCC1", "note": "[Compound 13, 1-(4-(((4-((4-methoxy-3-(3-(pyrrolidin-1-yl)propoxy)phenyl)amino)pyridin-2-yl)(methyl)amino)methyl)piperidin-1-yl)ethan-1-one]", "IC50": "> 10"}, {"compound": "COc1ccc(Nc2nccc(OCC3CCN(C(C)=O)CC3)n2)cc1OCCCN1CCCC1", "note": "[Compound 14, 1-(4-(((2-((4-methoxy-3-(3-(pyrrolidin-1-yl)propoxy)phenyl)amino)pyrimidin-4-yl)oxy)methyl)piperidin-1-yl)ethan-1-one]", "IC50": "> 10"}, {"compound": "COc1ccc(Nc2nccc(NCC3CCNCC3)n2)cc1OCC(O)CN1CCCC1", "note": "(stereo not drawn) [Compound 15, 1-(2-methoxy-5-((4-((piperidin-4-ylmethyl)amino)pyrimidin-2-yl)amino)phenoxy)-3-(pyrrolidin-1-yl)propan-2-ol]", "IC50": "> 10"}, {"compound": "COc1ccc(Nc2nc(NCC3CCNCC3)cc(N3CCCC3)n2)cc1OCCCN1CCCC1", "note": "[Compound 103]", "IC50": "> 10"}, {"compound": "COc1ccc(Nc2cc(CNC3CCNCC3)n(C)n2)cc1OCCCN1CCCC1", "note": "[Compound 126]", "IC50": "> 10"}, {"compound": "COc1ccc(Nc2cc(CNC3CCOCC3)n(C)n2)cc1OCCCN1CCCC1", "note": "[Compound 127]", "IC50": "> 10"}, {"compound": "COc1ccc(Nc2nccc(N3CCc4[nH]ncc4C3)n2)cc1OCCCN1CCCC1", "note": "[Compound 128]", "IC50": "> 10"}, {"compound": "COc1ccc(Nc2nccc(-c3c(C)n[nH]c3C)n2)cc1OCCCN1CCCC1", "note": "[Compound 129]", "IC50": "> 10"}, {"compound": "COc1ccc(Nc2nccc(-c3c(C)noc3C)n2)cc1OCCCN1CCCC1", "note": "[Compound 130]", "IC50": "> 10"}, {"compound": "COc1ccc(Nc2nccc(-c3c[nH]nc3C)n2)cc1OCCCN1CCCC1", "note": "[Compound 131]", "IC50": "> 10"}, {"compound": "COc1ccc(Nc2nccc(N3CCN(C)C(=O)C3)n2)cc1OCCCN1CCCC1", "note": "[Compound 132]", "IC50": "> 10"}, {"compound": "COc1ccc(Nc2nccc(N3CCCNC(=O)C3)n2)cc1OCCCN1CCCC1", "note": "[Compound 133]", "IC50": "> 10"}, {"compound": "COc1ccc(Nc2nccc(N3CCc4nc[nH]c(=O)c4C3)n2)cc1OCCCN1CCCC1", "note": "[Compound 134]", "IC50": "> 10"}, {"compound": "COc1ccc(Nc2nccc(N(C)Cc3cccnc3)n2)cc1OCCCN1CCCC1", "note": "[Compound 135]", "IC50": "> 10"}, {"compound": "COc1ccc(Nc2nccc(N(C)Cc3ccccn3)n2)cc1OCCCN1CCCC1", "note": "[Compound 136]", "IC50": "> 10"}, {"compound": "COc1ccc(Nc2nccc(NC3COC3)n2)cc1OCCCN1CCCC1", "note": "[Compound 137]", "IC50": "> 10"}, {"compound": "COc1ccc(Nc2nccc(N3CCCN(C(C)=O)CC3)n2)cc1OCCCN1CCCC1", "note": "[Compound 138]", "IC50": "> 10"}, {"compound": "COc1ccc(Nc2nccc(N3CCN(C(C)=O)CC3)n2)cc1OCCCN1CCCC1", "note": "[Compound 139]", "IC50": "> 10"}, {"compound": "COc1ccc(Nc2nccc(N(C)CCCO)n2)cc1OCCCN1CCCC1", "note": "[Compound 140]", "IC50": "> 10"}, {"compound": "COc1ccc(Nc2nccc(N3CCC(C)(O)CC3)n2)cc1OCCCN1CCCC1", "note": "[Compound 141]", "IC50": "> 10"}, {"compound": "COc1ccc(Nc2nccc(N(C)C3CCOCC3)n2)cc1OCCCN1CCCC1", "note": "[Compound 142]", "IC50": "> 10"}, {"compound": "COCCCN(C)c1ccnc(Nc2ccc(OC)c(OCCCN3CCCC3)c2)n1", "note": "[Compound 143]", "IC50": "> 10"}, {"compound": "COc1ccc(Nc2nccc(CNC(C)=O)n2)cc1OCCCN1CCCC1", "note": "[Compound 144]", "IC50": "> 10"}, {"compound": "CC(=O)N1CCC(CNc2ccnc(Nc3ccc(C)c(OCCCN4CCCC4)c3)n2)CC1", "note": "[Compound 145]", "IC50": "> 10"}, {"compound": "COc1ccc(Nc2nccc(N(C)CC3CCOCC3)n2)cc1OCCCN1CCCC1", "note": "[Compound 146]", "IC50": "1 to 10"}, {"compound": "COc1ccc(Nc2nccc(N3CCC(C(C)(C)O)CC3)n2)cc1OCCCN1CCCC1", "note": "[Compound 147]", "IC50": "> 10"}, {"compound": "COc1ccc(Nc2nccc(N3CCC(O)CC3)n2)cc1OCCCN1CCCC1", "note": "[Compound 148]", "IC50": "> 10"}, {"compound": "COc1ccc(Nc2nccc(N3CCC(OC)CC3)n2)cc1OCCCN1CCCC1", "note": "[Compound 149]", "IC50": "> 10"}, {"compound": "COc1ccc(Nc2nccc(N(C)CCO)n2)cc1OCCCN1CCCC1", "note": "[Compound 150]", "IC50": "> 10"}, {"compound": "COc1ccc(Nc2nccc(N3CCCOCC3)n2)cc1OCCCN1CCCC1", "note": "[Compound 151]", "IC50": "> 10"}, {"compound": "COc1ccc(Nc2nccc(NC3CCS(=O)(=O)CC3)n2)cc1OCCCN1CCCC1", "note": "[Compound 152]", "IC50": "> 10"}, {"compound": "COc1ccc(Nc2nccc(N3CCC(C(N)=O)CC3)n2)cc1OCCCN1CCCC1", "note": "[Compound 153]", "IC50": "> 10"}, {"compound": "COc1ccc(Nc2nccc(N3CCNc4ccccc4C3)n2)cc1OCCCN1CCCC1", "note": "[Compound 154]", "IC50": "> 10"}, {"compound": "COc1ccc(Nc2nccc(N3CCc4cn[nH]c4C3)n2)cc1OCCCN1CCCC1", "note": "[Compound 155]", "IC50": "> 10"}, {"compound": "COc1ccc(Nc2nccc(N3CCc4ncncc4C3)n2)cc1OCCCN1CCCC1", "note": "[Compound 156]", "IC50": "> 10"}, {"compound": "COc1ccc(Nc2ccnc(OCC3CCN(C(C)=O)CC3)c2)cc1OCCCN1CCCC1", "note": "[Compound 157]", "IC50": "> 10"}]}]}
